The source of these data is patent US8486958B2, “Crystalline forms of a 3-carboxypropyl-aminotetralin compound” (priority 2008, dated 2013).

Series [1] can be described thus: Dynamic moisture sorption assessment. The format is physicochemical. Conditions: for deliquescence: up to about 90% relative humidity at room temperature. As for the experimental part:
Dynamic moisture sorption (DMS) assessment was performed at 25° C. using a VTI atmospheric microbalance, SGA-100 system (VTI Corp., Hialeah, Fla. 33016). […] A typical DMS analysis consisted of three or four scans: ambient to 2% relative humidity (RH), 2% RH to 90% RH, 90% RH to 5% RH at a scan rate of 5% RH/step, and, in some case a second adsorption 2% RH to 90% RH. The mass was measured every two minutes and the RH was changed to the next value (±5% RH) when the mass of the sample was stable to within 0.02% for 5 consecutive points.

Series [2] concerns the target T1, human mu opioid receptor (Homo sapiens, UniProt P35372).
T1 construct: expressed in transfected cells; host or cells: CHO-K1
Description: Radioligand binding assay, [3H]-Diprenorphine displacement, CHO-K1 membranes.

For series [3], the target named is T1, human mu opioid receptor. Description: Human mu GTP-Eu nucleotide exchange assay (agonist mediated activation). The format is biochemical. Conditions: relative to DAMGO as full agonist; read-out: intrinsic activity (IA), bound GTP-Eu relative to DAMGO (IA=100).
The subject of series [4] is loperamide-induced delayed gastric emptying. Description: Rat gastric emptying assay (reversal of loperamide-induced delay). The format is in vivo. Conditions: administered orally, loperamide 1 mg/kg s.c. As for the experimental part:
Assay 3: Rat Model of In Vivo Efficacy In this assay the efficacy of test compounds was evaluated in a model of gastrointestinal transit, which evaluates peripheral activity. This study was approved by the Institutional Animal Care and Use Committee at […]. and conformed to the Guide for the Care and Use of Laboratory Animals published by the National Academy of Sciences (©1996). Test compounds were evaluated in the rat gastric emptying assay to determine their ability to reverse loperamide-induced delayed gastric emptying. Rats were fasted up overnight prior to administration of test compounds or vehicle by intravenous, subcutaneous, intramuscular or oral routes of administration at doses ranging from 0.001 to about 30 milligrams/kilogram (mg/kg). The administration of test compound was followed by subcutaneous administration of loperamide at a dose of 1 mg/kg or vehicle. […] Gastric weight was then determined after removal of the ligatures. Data was analyzed using the GraphPad Prism Software package (GraphPad Software, Inc., San Diego, Calif.). Percent reversal curves were constructed by non-linear regression analysis using the sigmoidal dose response (variable slope) model and best-fit ID50 values were calculated. […]

Series [5] deals with motility of the gastrointestinal (GI) tract. Description: Gastrointestinal motility in animal models. In kind it is in vivo.
A short description of series [6]: Thermogravimetric analysis (TGA). The format is physicochemical. The settings on record: temperatures below the melting point. As for the experimental part:
Thermogravimetric analysis (TGA) was performed using a TA Instruments Model Q-500 module. Data were collected and analyzed using TA Instruments Thermal Advantage for Q Series™ software. A sample weighing about 1-5 mg was placed in an aluminum pan on a platinum cradle and scanned from ambient temperature to 300° C. with a linear heating rate of 10° C./min. The balance and furnace chambers were purged with nitrogen during use. Representative TGA traces for samples of crystalline Form I and of a crystalline hydrochloride salt of compound 1 are also shown in FIGS. 2 and 7, respectively.

Molecules are shown by their SMILES.

T1 sequence (P35372 whole entry): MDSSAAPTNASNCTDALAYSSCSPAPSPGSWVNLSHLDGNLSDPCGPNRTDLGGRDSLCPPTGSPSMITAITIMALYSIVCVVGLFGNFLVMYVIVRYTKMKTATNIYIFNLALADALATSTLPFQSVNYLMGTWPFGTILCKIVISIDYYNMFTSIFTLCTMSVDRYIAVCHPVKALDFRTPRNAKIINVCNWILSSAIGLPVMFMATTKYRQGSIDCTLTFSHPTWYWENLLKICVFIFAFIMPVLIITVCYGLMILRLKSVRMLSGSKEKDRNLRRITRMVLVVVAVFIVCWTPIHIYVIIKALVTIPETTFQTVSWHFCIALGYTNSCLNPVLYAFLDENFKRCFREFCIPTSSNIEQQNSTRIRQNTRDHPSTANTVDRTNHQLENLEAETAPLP

Regarding `CCC1(CC)c2cc(C(N)=O)ccc2C[C@H](OC)[C@H]1NCC[C@H](CC1CCCCC1)C(=O)O.Cl` [(S)-4-((2S,3S)-7-Carbamoyl-1,1-diethyl-3-methoxy-1,2,3,4-tetrahydronaphthalen-2-ylamino)-2-cyclohexylmethyl-butyric acid hydrochloride], the “appearance and flowability on exposure to humidity” value in series [1] (about 2% to about 90% relative humidity at room temperature) was “retained their appearance and flowability”. Further, the deliquescence entry in series [1] is “neither crystalline compound 1 nor the crystalline hydrochloride salt of compound 1 is deliquescent”.

For orientation: Ki means the equilibrium dissociation constant of an inhibitor or competing ligand from its target. A high value points to a looser hold on the target. With `CCC1(CC)c2cc(C(N)=O)ccc2C[C@H](OC)[C@H]1NCC[C@H](CC1CCCCC1)C(=O)O` [Compound 1, (S)-4-((2S,3S)-7-carbamoyl-1,1-diethyl-3-methoxy-1,2,3,4-tetrahydronaphthalen-2-ylamino)-2-cyclohexylmethyl-butyric acid], the Ki at human mu opioid receptor [2] was 0.398 nM. For the same molecule, at human mu opioid receptor [3], the Emax was -8%. For the same molecule, in series [4], the “ID50, dose required for 50% reversal of the effects of loperamide” value is on record as 0.09 mg/kg. Also, the “effect on motility of the gastrointestinal tract” value in series [5] is reported as “increase motility of the gastrointestinal (GI) tract”.

Take `CCC1(CC)c2cc(C(N)=O)ccc2C[C@H](OC)[C@H]1NCC[C@H](CC1CCCCC1)C(=O)O` [Form I, (S)-4-((2S,3S)-7-carbamoyl-1,1-diethyl-3-methoxy-1,2,3,4-tetrahydronaphthalen-2-ylamino)-2-cyclohexylmethyl-butyric acid]: the “weight gain (moisture sorption)” value in series [1] (40% to 75% relative humidity) is reported as “less than 1%”. For the same molecule, in series [6], the TGA weight loss entry is listed as “no significant weight loss”.

In the case of `CCC1(CC)c2cc(C(N)=O)ccc2C[C@H](OC)[C@H]1NCC[C@H](CC1CCCCC1)C(=O)O` [crystalline compound 1, (S)-4-((2S,3S)-7-carbamoyl-1,1-diethyl-3-methoxy-1,2,3,4-tetrahydronaphthalen-2-ylamino)-2-cyclohexylmethyl-butyric acid], the “weight gain (moisture sorption)” value in series [1] (2% to 90% relative humidity, room temperature) was “less than 2.5%”. Also, the deliquescence result in series [1] is listed as “neither crystalline compound 1 nor the crystalline hydrochloride salt of compound 1 is deliquescent”.
